The values below are quoted from earlier work in article PMC5641551, “Chemical Proteomics for Target Discovery of Head-to-Tail Cyclized Mini-Proteins” (Frontiers in Chemistry, 2017).

The data set deals with FK-binding protein 12. The following applies: no reference given; cited from earlier work.

For `CO[C@H]1C[C@@H]2CC[C@@H](C)[C@@](O)(O2)C(=O)C(=O)N2CCCC[C@H]2C(=O)O[C@H]([C@H](C)C[C@@H]2CC[C@@H](O)[C@H](OC)C2)CC(=O)[C@H](C)/C=C(\C)[C@@H](O)[C@@H](OC)C(=O)[C@H](C)C[C@H](C)/C=C/C=C/C=C/1C` [rapamycin], the “binding to FK-binding protein 12” value is recorded as “binds to the protein FK-binding protein 12”.
